These results are taken from patent US20200261421A1, “HETEROCYCLIC COMPOUNDS AS HIV PROTEASE INHIBITORS” (Merck Sharp & Dohme Corp., priority 2016, published 2020).

This assay concerns the target T1, wild-type HIV-1 protease (Human immunodeficiency virus type 1 group M subtype B, UniProt P04585).
T1 construct: Escherichia coli expressed wild-type HIV-1 protease protein; made in house; host or cells: Escherichia coli
In words: Assay for Inhibition of Microbial Expressed HIV Protease. It counts as biochemical. Particulars: Escherichia coli expressed wild-type HIV-1 protease, peptide substrate cleavage; mean of at least two independent experiments. How it is done:
Inhibition of Escherichia coli expressed wild-type HIV-1 protease protein was carried out with a peptide substrate [Val-Ser-Gln-Asn-Wnaphtyl)Ala-Pro-Ile-Val]. The inhibitor compound was preincubated with HIV-1 protease enzyme in assay buffer (50 mM sodium acetate, pH 5.5, 100 mM NaCl, and 0.1% BSA) for 30 minutes at room temperature. Peptide substrate was added to 400 μM in a total volume of 20 μL containing 20 pM HIV-1 protease (final) after which the reaction was incubated for 1 hour at 30° C. The reaction was quenched by the addition of formic acid and HIV protease inhibitor indinavir to 0.012% and 150 nM final concentrations, respectively. Product formation was determined after separation of product and substrate on a ZORBAX Eclipse XDB-C18 column (Aligent Technologies, Santa Clara, Calif., USA) connected to an API 4000™ mass spectrometer (AB Sciex, Pte. Ltd., Concord Ontario, Canada) with multiple reaction monitoring (transitions were 644.5/428.9 and 615.4/422.2 (M1/M3) for product and indinavir respectively). The extent of inhibition of the reaction was determined from the peak area of the products. Analysis of the products, independently synthesized, provided quantitation standards and confirmation of the product composition. […] Ic50's refer to the 50% inhibition of the cleavage of a peptide substrate by hiv protease.
Data shown in the table reflects the mean of at least two independent experiments.

With `CN(Cc1ccc(Cl)cc1)C(=O)c1cccc(CN2C(=N)NC(c3ccc(F)cc3)(c3ccccn3)C2=O)c1` (stereo not shown) [Example 39, N-(4-chlorobenzyl)-3-{[4-(4-fluorophenyl)-2-imino-5-oxo-4-pyridin-2-ylimidazolidin-1-yl]methyl}-N-methylbenzamide], inhibition was half-maximal at 0.0248 µM (IC50).
`CN(Cc1ccc(Cl)cc1)C(=O)c1cccc(CN2C(=N)NC(c3ccc(F)cc3)(c3cccc(Br)c3)C2=O)c1` (stereo not shown) [Example 40, 3-{[4-(3-bromophenyl)-4-(4-fluorophenyl)-2-imino-5-oxoimidazolidin-1-yl]methyl}-N-(4-chlorobenzyl)-N-methylbenzamide] registered an IC50 of 0.0259 µM.
The compound `C[C@H](c1ccc(Cl)cc1)N(C)C(=O)c1cccc(CN2C(=N)NC(c3ccc(F)cc3)(c3ccc(F)cc3)C2=O)c1` [Example 41, 3-{[4,4-bis(4-fluorophenyl)-2-imino-5-oxoimidazolidin-1-yl]methyl}-N-[(1R)-1-(4-chlorophenyl)ethyl]-N-methylbenzamide] yielded an IC50 of 0.0265 µM.
Compound `CCN(Cc1ccc(F)cc1)C(=O)c1cccc(CN2C(=N)NC(c3ccc(F)cc3)(c3ccc(F)cc3)C2=O)c1` [Example 42, 3-{[4,4-bis(4-fluorophenyl)-2-imino-5-oxoimidazolidin-1-yl]methyl}-N-ethyl-N-(4-fluorobenzyl)benzamide] yielded a half-inhibitory concentration (IC50) of 0.0286 µM.
The compound `CCCC1(c2ccccc2)NC(=N)N(Cc2cccc(C(=O)N(C)Cc3ccc(F)cc3)c2)C1=O` (stereo not shown) [Example 43, N-(4-fluorobenzyl)-3-[(2-imino-5-oxo-4-phenyl-4-propylimidazolidin-1-yl)methyl]-N-methylbenzamide] gave a 50% inhibitory concentration (IC50) of 0.0287 µM.
Then `C[C@H](c1ccc(F)cc1)N(C)C(=O)c1cccc(CN2C(=N)NC(c3ccc(F)cc3)(c3ccc(F)cc3)C2=O)c1` [Example 44, 3-{[4,4-bis(4-fluorophenyl)-2-imino-5-oxoimidazolidin-1-yl]methyl}-N-[(1R)-1-(4-fluorophenyl)ethyl]-N-methylbenzamide], with 0.0292 µM; and `CN(C)C(=O)c1cccc(CN2C(=N)NC(c3ccccc3)(c3ccc(-c4ccccc4)cc3)C2=O)c1` (stereo not shown) [Example 45, 3-[(4-biphenyl-4-yl-2-imino-5-oxo-4-phenylimidazolidin-1-yl)methyl]-N,N-dimethylbenzamide], with 0.0303 µM.
In the case of `CN(Cc1ccccc1C(F)(F)F)C(=O)c1cccc(CN2C(=N)NC(c3ccc(F)cc3)(c3ccc(F)cc3)C2=O)c1` [Example 46, 3-{[4,4-bis(4-fluorophenyl)-2-imino-5-oxoimidazolidin-1-yl]methyl}-N-methyl-N-[2-(trifluoromethyl)-benzyl]benzamide], the IC50 is 0.0311 µM.
Under `CCCC1(c2ccccc2)NC(=N)N(Cc2cccc(C(=O)N(C)Cc3ccc(Cl)cn3)c2)C1=O` (stereo not shown) [Example 47, N-[(5-chloropyridin-2-yl)methyl]-3-[(2-imino-5-oxo-4-phenyl-4-propylimidazolidin-1-yl)methyl]-N-methylbenzamide] stands 0.0333 µM.
As for `C[C@H](c1ccccc1)N(C)C(=O)c1cccc(CN2C(=N)NC(c3ccccc3)(c3ccccc3)C2=O)c1` [Example 48, 3-[(2-imino-5-oxo-4,4-diphenylimidazolidin-1-yl)methyl]-N-methyl-N-[(1R)-1-phenylethyl]benzamide], the IC50 is 0.0396 µM.
On to `CC(C)CCC1(c2cccc(F)c2)NC(=N)N(Cc2cccc(C(=O)N(C)Cc3ccc(Cl)cc3)c2)C1=O` (stereo not shown) [Example 49, N-(4-chlorobenzyl)-3-{[4-(3-fluorophenyl)-2-imino-4-(3-methylbutyl)-5-oxoimidazolidin-1-yl]methyl}-N-methylbenzamide], for which the IC50 turned out to be 0.0435 µM.
As for `[2H]C([2H])([2H])N(C(=O)c1cccc(CN2C(=N)NC(c3ccc(F)cc3)(c3ccc(F)cc3)C2=O)c1)[C@H](C)c1ccc(F)cc1` [Example 50, 3-{[4,4-bis(4-fluorophenyl)-2-imino-5-oxoimidazolidin-1-yl]methyl}-N-[(1R)-1-(4-fluorophenyl)ethyl]-N(~2~H_3_)methylbenzamide], the half-inhibitory concentration (IC50) is 0.0451 µM.
`CN(C)C(=O)c1cccc(CN2C(=N)NC(c3ccccc3)(c3cccc(-c4cccc(C#N)c4)c3)C2=O)c1` (stereo not shown) [Example 51, 3-{[4-(3'-cyanobiphenyl-3-yl)-2-imino-5-oxo-4-phenylimidazolidin-1-yl]methyl}-N,N-dimethylbenzamide]: half-maximal inhibition (IC50) was put at 0.0455 µM.
Then `CN(Cc1ccccc1S(C)(=O)=O)C(=O)c1cccc(CN2C(=N)NC(c3ccc(F)cc3)(c3ccc(F)cc3)C2=O)c1` [Example 52, 3-{[4,4-bis(4-fluorophenyl)-2-imino-5-oxoimidazolidin-1-yl]methyl}-N-methyl-N-[2-(methylsulfonyl)-benzyl]benzamide], with 0.0483 µM; and `CN(C)C(=O)c1cccc(CN2C(=N)NC(c3ccc(F)cc3)(c3cccc(Br)c3)C2=O)c1` (stereo not shown) [Example 53, 3-{[4-(3-bromophenyl)-4-(4-fluorophenyl)-2-imino-5-oxoimidazolidin-1-yl]methyl}-N,N-dimethylbenzamide], with 0.0486 µM.
For `CN(C)C(=O)c1cccc(CN2C(=N)NC(c3ccccc3)(c3ccc(-c4cccc(C#N)c4)cc3)C2=O)c1` (stereo not shown) [Example 54, 3-{[4-(3'-cyanobiphenyl-4-yl)-2-imino-5-oxo-4-phenylimidazolidin-1-yl]methyl}-N,N-dimethylbenzamide], the IC50 came out at 0.0522 µM.
As to `CC(C)C[C@@]1(c2ccccc2)NC(=N)N([C@H](C)c2cccc(C(=O)N(C)Cc3ccc(F)cc3)c2)C1=O` [Example 55, N-(4-fluorobenzyl)-3-((R)-1-((S)-2-imino-4-isobutyl-5-oxo-4-phenylimidazolidin-1-yl)ethyl)-N-methylbenzamide], the half-maximal inhibitory concentration (IC50) stood at 0.0529 µM.
`CN(C)C(=O)c1cccc(CN2C(=N)NC(c3ccccc3)(c3cccc(-c4ccco4)c3)C2=O)c1` (stereo not shown) [Example 56, 3-{[4-(3-furan-2-ylphenyl)-2-imino-5-oxo-4-phenylimidazolidin-1-yl]methyl}-N,N-dimethylbenzamide] yielded an IC50 of 0.0563 µM.
Compound `CN(Cc1cccnc1)C(=O)c1cccc(CN2C(=N)NC(c3ccc(F)cc3)(c3ccc(F)cc3)C2=O)c1` [Example 57, 3-{[4,4-bis(4-fluorophenyl)-2-imino-5-oxoimidazolidin-1-yl]methyl}-N-methyl-N-(pyridin-3-ylmethyl)benzamide] registered an IC50 of 0.0589 µM. The IC50 values of the last two compounds are within 1.5-fold of each other.
`CN(C)C(=O)c1cccc(CN2C(=N)NC(c3ccc(F)cc3)(c3cccc(-c4cccc(C#N)c4)c3)C2=O)c1` (stereo not shown) [Example 58, 3-{[4-(3'-cyanobiphenyl-3-yl)-4-(4-fluorophenyl)-2-imino-5-oxoimidazolidin-1-yl]methyl}-N,N-dimethylbenzamide] had an IC50 of 0.0634 µM.
For `CN(Cc1ccccn1)C(=O)c1cccc(CN2C(=N)NC(c3ccc(F)cc3)(c3ccc(F)cc3)C2=O)c1` [Example 59, 3-{[4,4-bis(4-fluorophenyl)-2-imino-5-oxoimidazolidin-1-yl]methyl}-N-methyl-N-(pyridin-2-ylmethyl)benzamide], half-maximal inhibition (IC50) required 0.0659 µM.
Regarding `CN(Cc1cccc(S(C)(=O)=O)c1)C(=O)c1cccc(CN2C(=N)NC(c3ccc(F)cc3)(c3ccc(F)cc3)C2=O)c1` [Example 60, 3-{[4,4-bis(4-fluorophenyl)-2-imino-5-oxoimidazolidin-1-yl]methyl}-N-methyl-N-[3-(methylsulfonyl)benzyl]benzamide], the concentration for half-maximal inhibition (IC50) is 0.0692 µM.

One may read the IC50 as the midpoint of a concentration-inhibition curve.
